Test results taken from patent US6306854A, “Chemical compounds” (Glaxosmithkline, priority 1998, dated 2001).
Blank lines part the entries; values can stand above or below the compound they belong to.

Legend:
[1] = system: PPAR alpha over PPAR gamma; assay: Transfection assay, selectivity for PPAR alpha over PPAR gamma (GAL4-hPPAR alpha and GAL4-hPPAR gamma); format: cell-based, human; conditions: CV-1 cells
Protocol: Plasmids: GAL4-hPPAR alpha chimera and UAS-tk-SPAP reporters.
Transfection assay: SPAP reporter. CV-1 cells were plated in DME medium supplemented with 10% delipidated fetal calf serum at a density of 2.4×10^4 cells per well in a 96-well plate (Costar) 16-24 h before transfection. In general, 8.0 ng of reporter plasmid, 25.0 ng of β-galactosidase expression vector (pCH 110, Pharamacia), and 2.0 ng of GAL4-hPPAR alpha or GAL4-hPPAR gamma expression vector were mixed with carrier DNA (pBluescript, Stratagene) to a total of 80 ng of DNA per well in a volume of […] optiMEM I medium (Life Technologies). To this, a second mix, containing […] optiMEM I medium and […] of LIPOFECTAMINE™ (Life Technologies), was added. After 30 min. an additional […] of optiMEM I medium were added and the combined mix was then applied to the cells. […] Alternatively, alkaline phosphatse and β-galactosidase activities were measured separately using standard protocols. Briefly, cells were lysed by adding […] 0.5% Triton X-100 to the supernatant.

Zucker fa/fa female rats = assay: Diet-Induced Model of Dyslipidemia, Zucker fa/fa female rats; format: in vivo, rat; conditions: females
Text: (§1) Zucker lean male rats and Zucker fa/fa female rats were randomized into 3 treatment groups. The randomization was based on serum triglyceride concentration after three months on the TEKLAD high fat diet. Dosing with Example 5 or the appropriate vehicle, by oral gavage, began after 4 months of high fat feeding. Plasma glucose, lactate, serum insulin and lipid concentrations were obtained weekly, beginning on day 7 through 48 after the initiation of therapy. Metabolic data from each treatment group was collected weekly. Dexascan determinations of body mass composition obtained after 4 months on the high fat diet served as baseline. Changes in body mass composition due to therapy were determined by repeat measurements at the end of the study.
(§2) Treatment Group B Example 5 (0.1 mg/kg) dosed twice a day.
(§3) Treatment Group C Example 5 (0.3 mg/kg) dosed twice a day.

Zucker lean male rats = assay: Diet-Induced Model of Dyslipidemia, Zucker lean male rats; format: in vivo, rat; conditions: males; for NEFA: before drug 0.72
Text: as §1, §2, §3

hPPAR alpha = assay: Binding Assay (displacement of Radioligand from GST-hPPAR alpha); design: species or system human; conditions: 60 nM Radioligand
Text: Bound radioactivity eluted in the column void volume and was quantitated by liquid scintillation counting.

SMILES: CC(C)(Sc1ccc(CCN(CCc2ccc(-c3ccccc3)cc2)C(=O)NC2CCCCC2)cc1)C(=O)O [Example 2, 2-(4-(2-(1-(4-Biphenylethyl)-3-cyclohexylureido)ethyl)phenylthio)-2-methylpropionic Acid]
activity ratio, PPAR alpha over PPAR gamma [1]: greater than 100

SMILES: CCCCCCCN(CCc1ccc(SC(C)(C)C(=O)O)cc1)C(=O)Nc1ccc(F)cc1F [Example 5, 2-(4-(2-(1-Heptyl-3-(2,4-difluorophenyl)ureido)ethyl)phenylthio)-2-methylpropionic Acid]
NEFA (Zucker fa/fa female rats; 0.1 mg/kg oral gavage twice a day, Week 1, before drug 11.15, vehicle 6.78): 2.47 m Eq/L
Body Weight (Zucker fa/fa female rats; 0.1 mg/kg oral gavage twice a day, Week 1, before drug 665, vehicle 684): 721 g
Cholesterol (Zucker fa/fa female rats; 0.1 mg/kg oral gavage twice a day, Week 1, before drug 1648, vehicle 1186): 610 mg/dL
Triglycerides (Zucker fa/fa female rats; 0.1 mg/kg oral gavage twice a day, Week 1, before drug (after 4 months on high-fat diet) 9310, vehicle 5357): 2717 mg/dL
NEFA (Zucker fa/fa female rats; 0.1 mg/kg oral gavage twice a day, Week 4, before drug 11.15, vehicle 2.79): 1.32 m Eq/L
Body Weight (Zucker fa/fa female rats; 0.1 mg/kg oral gavage twice a day, Week 4, before drug 665, vehicle 700): 723 g
Cholesterol (Zucker fa/fa female rats; 0.1 mg/kg oral gavage twice a day, Week 4, before drug 1648, vehicle 1319): 733 mg/dL
Triglycerides (Zucker fa/fa female rats; 0.1 mg/kg oral gavage twice a day, Week 4, before drug 9310, vehicle 10414): 3913 mg/dL
NEFA (Zucker fa/fa female rats; 0.1 mg/kg oral gavage twice a day, Week 7, before drug 11.15, vehicle 3.77): 1.75 m Eq/L
Body Weight (Zucker fa/fa female rats; 0.1 mg/kg oral gavage twice a day, Week 7, before drug 665, vehicle 706): 710 g
Cholesterol (Zucker fa/fa female rats; 0.1 mg/kg oral gavage twice a day, Week 7, before drug 1648, vehicle 923): 632 mg/dL
Triglycerides (Zucker fa/fa female rats; 0.1 mg/kg oral gavage twice a day, Week 7, before drug 9310, vehicle 5465): 2627 mg/dL
NEFA (Zucker fa/fa female rats; 0.3 mg/kg oral gavage twice a day, Week 1, before drug 13.06, vehicle 6.78): 1.45 m Eq/L
Body Weight (Zucker fa/fa female rats; 0.3 mg/kg oral gavage twice a day, Week 1, before drug 645, vehicle 684): 673 g
Cholesterol (Zucker fa/fa female rats; 0.3 mg/kg oral gavage twice a day, Week 1, before drug 1908, vehicle 1186): 350 mg/dL
Triglycerides (Zucker fa/fa female rats; 0.3 mg/kg oral gavage twice a day, Week 1, before drug 9190, vehicle 5357): 1627 mg/dL
NEFA (Zucker fa/fa female rats; 0.3 mg/kg oral gavage twice a day, Week 4, before drug 13.06, vehicle 2.79): 0.59 m Eq/L
Body Weight (Zucker fa/fa female rats; 0.3 mg/kg oral gavage twice a day, Week 4, before drug 645, vehicle 700): 643 g
Cholesterol (Zucker fa/fa female rats; 0.3 mg/kg oral gavage twice a day, Week 4, before drug 1908, vehicle 1319): 404 mg/dL
Triglycerides (Zucker fa/fa female rats; 0.3 mg/kg oral gavage twice a day, Week 4, before drug 9190, vehicle 10414): 687 mg/dL
NEFA (Zucker fa/fa female rats; 0.3 mg/kg oral gavage twice a day, Week 7, before drug 13.06, vehicle 3.77): 0.53 m Eq/L
Body Weight (Zucker fa/fa female rats; 0.3 mg/kg oral gavage twice a day, Week 7, before drug 645, vehicle 706): 582 g
Cholesterol (Zucker fa/fa female rats; 0.3 mg/kg oral gavage twice a day, Week 7, before drug 1908, vehicle 923): 422 mg/dL
Triglycerides (Zucker fa/fa female rats; 0.3 mg/kg oral gavage twice a day, Week 7, before drug 9190, vehicle 5465): 538 mg/dL
NEFA (Zucker lean male rats; 0.1 mg/kg oral gavage twice a day, Week 1, vehicle 0.85): 0.73 m Eq/L
Cholesterol (Zucker lean male rats; 0.1 mg/kg oral gavage twice a day, Week 1, before drug 221, vehicle 191): 138 mg/dL
Body Weight (Zucker lean male rats; 0.1 mg/kg oral gavage twice a day, Week 1, before drug 636, vehicle 610): 617 g
Triglycerides (Zucker lean male rats; 0.1 mg/kg oral gavage twice a day, Week 1, before drug (after 4 months on high-fat diet) 828, vehicle 718): 460 mg/dL
NEFA (Zucker lean male rats; 0.1 mg/kg oral gavage twice a day, Week 4, vehicle 0.65): 0.57 m Eq/L
Cholesterol (Zucker lean male rats; 0.1 mg/kg oral gavage twice a day, Week 4, before drug 221, vehicle 224): 189 mg/dL
Body Weight (Zucker lean male rats; 0.1 mg/kg oral gavage twice a day, Week 4, before drug 636, vehicle 610): 592 g
Triglycerides (Zucker lean male rats; 0.1 mg/kg oral gavage twice a day, Week 4, before drug 828, vehicle 741): 467 mg/dL
NEFA (Zucker lean male rats; 0.1 mg/kg oral gavage twice a day, Week 7, vehicle 0.60): 0.58 m Eq/L
Cholesterol (Zucker lean male rats; 0.1 mg/kg oral gavage twice a day, Week 7, before drug 221, vehicle 215): 148 mg/dL
Body Weight (Zucker lean male rats; 0.1 mg/kg oral gavage twice a day, Week 7, before drug 636, vehicle 632): 597 g
Triglycerides (Zucker lean male rats; 0.1 mg/kg oral gavage twice a day, Week 7, before drug 828, vehicle 725): 584 mg/dL
NEFA (Zucker lean male rats; 0.3 mg/kg oral gavage twice a day, Week 1, vehicle 0.85): 0.69 m Eq/L
Cholesterol (Zucker lean male rats; 0.3 mg/kg oral gavage twice a day, Week 1, before drug 235, vehicle 191): 138 mg/dL
Body Weight (Zucker lean male rats; 0.3 mg/kg oral gavage twice a day, Week 1, before drug 639, vehicle 610): 608 g
Triglycerides (Zucker lean male rats; 0.3 mg/kg oral gavage twice a day, Week 1, before drug 926, vehicle 718): 527 mg/dL
NEFA (Zucker lean male rats; 0.3 mg/kg oral gavage twice a day, Week 4, vehicle 0.65): 0.47 m Eq/L
Cholesterol (Zucker lean male rats; 0.3 mg/kg oral gavage twice a day, Week 4, before drug 235, vehicle 224): 174 mg/dL
Body Weight (Zucker lean male rats; 0.3 mg/kg oral gavage twice a day, Week 4, before drug 639, vehicle 610): 577 g
Triglycerides (Zucker lean male rats; 0.3 mg/kg oral gavage twice a day, Week 4, before drug 926, vehicle 741): 174 mg/dL
NEFA (Zucker lean male rats; 0.3 mg/kg oral gavage twice a day, Week 7, vehicle 0.60): 0.46 m Eq/L
Cholesterol (Zucker lean male rats; 0.3 mg/kg oral gavage twice a day, Week 7, before drug 235, vehicle 215): 151 mg/dL
Body Weight (Zucker lean male rats; 0.3 mg/kg oral gavage twice a day, Week 7, before drug 639, vehicle 632): 565 g
Triglycerides (Zucker lean male rats; 0.3 mg/kg oral gavage twice a day, Week 7, before drug 926, vehicle 725): 219 mg/dL

SMILES: [3H]C(CCCC)C([3H])CN(CCc1ccc(OC(C)(CC)C(=O)O)cc1)C(=O)Nc1ccc(F)cc1F (centres unmarked) [Radioligand, 2-(4-(2-(2,3-Ditritio-1-heptyl-3-(2,4-difluorophenyl)ureido)ethyl)phenoxy)-2-methylbutanoic Acid]
Specific Binding (hPPAR alpha; no competitor minus 10 μM Cold Radioligand): 115000 dpm

Bound radioactivity in presence of competitor (hPPAR alpha; 10 μM competitor, 4° C., 2-3 hr, mean of triplicate, no competitor 140000): 25000 dpm
SMILES: CCCCCCCN(CCc1ccc(OC(C)(CC)C(=O)O)cc1)C(=O)Nc1ccc(F)cc1F (centres unmarked) [Cold Radioligand, 2-(4-(2-(1-Heptyl-3-(2,4-difluorophenyl)ureido)ethyl)phenoxy)-2-methylbutanoic Acid]

SMILES: CC(C)(Sc1ccc(CCN(Cc2ccc(-c3ccccc3C(F)(F)F)cc2Cl)C(=O)NC2CCCCC2)cc1)C(=O)O [Example 3, 2-(4-(2-(1-(2-Chloro-4-(2-trifluoromethylphenyl)phenylmethyl)-3-(cyclohexyl)ureido)ethyl)phenylthio)-2-methylpropionic Acid]
activity ratio, PPAR alpha over PPAR gamma [1]: greater than 100

SMILES: CC(C)(Sc1ccc(CCN(CCCCC2CCCCC2)C(=O)NC2CCCCC2)cc1)C(=O)O [Example 1, 2-(4-(2-(1-(Cyclohexanebutyl)-3-cyclohexylureido)ethyl)phenylthio)-2-methylpropionic Acid]
activity ratio, PPAR alpha over PPAR gamma [1]: greater than 100
